The target in assay [1] is UDP-galactopyranose mutase (Mycobacterium tuberculosis) (UniProt P9WIQ1). The experiment in a line: Inhibition of Mycobacterium tuberculosis UGM expressed in Escherichia coli BL21(DE3) at 500 uM by Fluorescence polarization assay relative to control. (In general: Fluorescence polarisation rises when a labelled molecule tumbles more slowly, as on binding a larger partner.)

Assay [2] addresses UDP-galactopyranose mutase (Klebsiella pneumoniae, UniProt Q48485). The experiment in a line: Inhibition of Klebsiella pneumoniae UGM expressed in Escherichia coli BL21(DE3) assessed as dissociation constant by fluorescence polarization assay.
Assay [3] addresses UDP-galactopyranose mutase (Mycobacterium tuberculosis) (UniProt P9WIQ1). The assay can be described thus: Inhibition of Mycobacterium tuberculosis UGM expressed in Escherichia coli BL21(DE3) assessed as formation of UDP-galactopyranose at 500 uM preincubated for 5 min followed by substrate addition and measured after 1 to 3 mins using UDP-galactofuranose as substrate by HPLC analysis relative to control. As to conditions: time 6-8 min.

Assay [4] has as its target T1, UDP-galactopyranose mutase (Mycobacterium tuberculosis, UniProt P9WIQ1). The assay can be described thus: Inhibition of Mycobacterium tuberculosis UGM expressed in Escherichia coli BL21(DE3) assessed as dissociation constant by fluorescence polarization assay.
Assay [5] addresses UDP-galactopyranose mutase (Klebsiella pneumoniae) (UniProt Q48485). The experiment in a line: Inhibition of Klebsiella pneumoniae UGM expressed in Escherichia coli BL21(DE3) at 500 uM by Fluorescence polarization assay relative to control.
Assay [6] concerns the target T1, UDP-galactopyranose mutase. The experiment in a line: Inhibition of Mycobacterium tuberculosis UGM expressed in Escherichia coli BL21(DE3) assessed as dissociation constant by SPR analysis. (SPR reads the build-up and loss of mass on a sensor chip optically.)

Sequence of UDP-galactopyranose mutase (Klebsiella pneumoniae, UniProt Q48485) (Q48485 whole entry): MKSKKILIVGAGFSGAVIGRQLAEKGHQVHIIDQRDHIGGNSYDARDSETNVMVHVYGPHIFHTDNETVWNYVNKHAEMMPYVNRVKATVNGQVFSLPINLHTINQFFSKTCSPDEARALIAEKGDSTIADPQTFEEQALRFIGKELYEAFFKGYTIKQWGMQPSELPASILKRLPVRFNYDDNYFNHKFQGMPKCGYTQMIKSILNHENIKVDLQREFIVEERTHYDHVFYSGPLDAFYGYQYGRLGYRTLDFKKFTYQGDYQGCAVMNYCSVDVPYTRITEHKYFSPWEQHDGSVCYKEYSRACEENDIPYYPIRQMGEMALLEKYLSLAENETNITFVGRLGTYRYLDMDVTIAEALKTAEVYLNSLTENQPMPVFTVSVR
Sequence of UDP-galactopyranose mutase (Klebsiella pneumoniae) (Q48485 whole entry): as above
T1 sequence (P9WIQ1 whole entry): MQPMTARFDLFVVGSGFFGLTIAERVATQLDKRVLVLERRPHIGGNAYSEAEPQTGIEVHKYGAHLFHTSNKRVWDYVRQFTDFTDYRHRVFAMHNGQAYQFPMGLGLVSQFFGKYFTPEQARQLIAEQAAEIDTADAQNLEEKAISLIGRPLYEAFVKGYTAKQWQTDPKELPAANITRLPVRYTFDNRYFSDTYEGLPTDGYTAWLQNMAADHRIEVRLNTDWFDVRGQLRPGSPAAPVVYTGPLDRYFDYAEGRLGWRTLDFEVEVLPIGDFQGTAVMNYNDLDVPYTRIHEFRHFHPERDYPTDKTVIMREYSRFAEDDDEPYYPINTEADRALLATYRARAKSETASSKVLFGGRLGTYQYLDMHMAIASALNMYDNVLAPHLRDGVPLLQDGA
Sequence of UDP-galactopyranose mutase (Mycobacterium tuberculosis) (P9WIQ1 whole entry, looked up): as the sequence (P9WIQ1 whole entry) above

The molecule `COc1cc(/C=C/C(=O)N[C@@H](Cc2ccc(O)c(O)c2)C(=O)O)ccc1O` returned an inhibition in assay [1] of 19%.
On the same count and under the same terms, the same measure for `O=C(/C=C/c1ccc(O)c(O)c1)N[C@@H](Cc1ccc(O)cc1)C(=O)O`: 18%.
As to `O=C(/C=C/c1ccccc1)N[C@@H](Cc1ccc(Br)cc1)C(=O)O`, the Kd is 58 µM in assay [2], 63 µM in assay [4] and 105 µM in assay [6]. Moreover, the figures for the inhibition in assay [1], in assay [3] and in assay [5] were 82%, 87% and 59%, respectively.
Turning to `O=c1ccn([C@@H]2O[C@H](COP(=O)(O)OP(=O)(O)O)[C@@H](O)[C@H]2O)c(=O)[nH]1` [URIDINE_DIPHOSPHATE], the Kd in assay [2] turned out to be 54 µM; in assay [4] it was 35 µM. The inhibition was found to be 86% in assay [1], 47.6% in assay [3] and 63% in assay [5].
For the molecule `O=C(/C=C/c1ccccc1)N[C@@H](Cc1ccc(Cl)cc1)C(=O)O`, the dissociation constant Kd in assay [2] was determined as 43 µM; in assay [4], 358 µM. Moreover, the inhibition in assay [1] amounted to 49%; in assay [3] it was 63.3%; in assay [5], 41%.
On to `O=C(/C=C/c1ccccc1)N[C@@H](Cc1ccc(F)cc1)C(=O)O`, for which the Kd worked out at 156 µM in assay [2] and 948 µM in assay [4]. The results for the inhibition in assay [1] and in assay [5] were 46% and 58%, respectively.
In assay [1], `O=C(/C=C/c1ccccc1)N[C@@H](Cc1ccc(O)cc1)C(=O)O` had an inhibition of 29%.
Regarding `O=C(/C=C/c1ccccc1)N[C@@H](Cc1ccccc1)C(=O)O`, the Kd in assay [2] and in assay [4] was greater than 1000 µM throughout. Moreover, the results for the inhibition in assay [1] and in assay [5] were 45% and 59%, respectively.
For the molecule `O=C(/C=C/c1ccc(O)c(O)c1)O[C@H](Cc1ccc(O)c(O)c1)C(=O)O` [ROSMARINIC ACID], the Kd worked out at 69 µM in assay [2] and 653 µM in assay [4]. The inhibition in assay [1] is 48%; in assay [5], 46%.
`O=C(/C=C/c1ccccc1)N[C@@H](Cc1ccc([N+](=O)[O-])cc1)C(=O)O`: the Kd was 231 µM in assay [2] and 401 µM in assay [4]. Moreover, the inhibition was 62% in assay [1], 35.2% in assay [3] and 59% in assay [5].
With `O=C(/C=C/c1ccccc1)N[C@@H](Cc1ccc(I)cc1)C(=O)O`, the Kd in assay [2] was found to be 17 µM; in assay [4], 197 µM. In addition, the inhibition in assay [1] stood at 77%; in assay [3], 54.6%; in assay [5], 60%.

A word on the inhibition: it is the percentage by which the read-out fell short of the control. By Kd is commonly meant the free concentration of one partner at which half of the binding sites on the other are occupied at equilibrium, for simple one-to-one binding.

The values are drawn from ChEMBL document CHEMBL5113462, “Synthesis and evaluation of inhibitors of Mycobacterium tuberculosis UGM using bioisosteric replacement” (Bioorg Med Chem, 2022).
